The target in assay [1] is Recombinant human MALT-1 (amino acids 340-824) (Homo sapiens (Human), UniProt Q9UDY8). Nature of the assay: MALT-1 inhibition assay (fluorogenic substrate Ac-LRSR-Rh110-DP). To be noted: recombinant human MALT-1, substrate Ac-LRSR-Rh110-DP. The assay is classed as biochemical. Put shortly: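 Reactions were started with fluorogenic substrate Ac-LRSR-Rh110-DP (10 μM final) against 3 nM enzyme and kept dark at 25° C for 60 minutes. IC50 values came from 4-parameter logistic fits of percent inhibition calculated from relative fluorescence units.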

The subject of assay [2] is IL-2 secretion by human effector memory T cells (TEM). Nature of the assay: Effector memory T cells IL-2 release assay. The assay is classed as cell-based. To be noted: human CD4+ effector memory T cells, CD3/CD28 bead stimulation, 24 h, read-out: CD4TC IL2 IC50. The procedure, abridged:
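Human CD4+ effector memory T cells from healthy-donor buffy coats were stimulated with anti-CD3/CD28 Dynabeads and exposed to 10 semi-log compound doses (0.1% DMSO) for 24 h at 37 °C. Supernatant IL-2 was measured by HTRF, and IC50 came from a 4-parameter logistic fit to maximal IL-2. Viability was checked by flow cytometry.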

What is called IC50 is the concentration that inhibits the measured activity by half.

Read-outs that look alike come from different tables or passages of the source.

Chain of Recombinant human MALT-1 (amino acids 340-824) (Q9UDY8 340-824): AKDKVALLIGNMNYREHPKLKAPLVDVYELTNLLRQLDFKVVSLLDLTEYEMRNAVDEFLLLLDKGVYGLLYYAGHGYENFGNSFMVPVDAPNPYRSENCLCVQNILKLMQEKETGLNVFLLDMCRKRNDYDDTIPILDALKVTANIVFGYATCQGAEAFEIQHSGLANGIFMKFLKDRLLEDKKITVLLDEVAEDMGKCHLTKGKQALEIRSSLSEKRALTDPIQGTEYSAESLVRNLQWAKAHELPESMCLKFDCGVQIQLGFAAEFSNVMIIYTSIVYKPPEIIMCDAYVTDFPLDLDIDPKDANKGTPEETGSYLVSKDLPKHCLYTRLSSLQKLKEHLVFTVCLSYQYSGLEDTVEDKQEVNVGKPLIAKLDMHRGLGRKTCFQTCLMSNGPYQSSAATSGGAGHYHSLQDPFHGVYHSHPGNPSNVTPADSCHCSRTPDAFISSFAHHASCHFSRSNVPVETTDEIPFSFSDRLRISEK

In the case of `CN(C(=O)[C@H]1C[C@@H]([S@+](C)(=N)[O-])C1)[C@@H](c1ccc(N2CCCc3c2cnc2cc(Cl)nn32)cc1)C(F)(F)F` [CPD0073224, (1S,3s)-N-[(1S)-1-(4-{4-chloro-2,3,7,10-tetraazatricyclo[7.4.0.0^2,6]trideca-1(9),3,5,7-tetraen-10-yl}phenyl)-2,2,2-trifluoroethyl]-3-[(S)-imino(methyl)oxo-λ^6-sulfanyl]-N-methylcyclobutane-1-carboxamide], the figures for the IC50 in assay [1] and in assay [2] (T-cell) were 56 nM and 181 nM, respectively.
`COc1ccc2ncc(Nc3ccc([C@H](N(C)C(=O)C4CCS(=O)(=O)CC4)C(F)(F)F)cc3)cc2n1` [CPD0018619, N-methyl-1,1-dioxo-N-[(1S)-2,2,2-trifluoro-1-[4-[(6-methoxy-1,5-naphthyridin-3-yl)amino]phenyl]ethyl]thiane-4-carboxamide]: the results for the IC50 in assay [1] and in assay [2] (T-cell) were 361 nM and 190 nM, respectively.
For `CN(C(=O)[C@H]1CC[S@@+]([O-])CC1)[C@@H](c1ccc(N2CCC(C)(C)c3c2cnc2cc(F)nn32)cc1)C(F)(F)F` (relative stereo) [CPD0072780, (1rel-s,4rel-s)-N-methyl-1-oxo-N-[(1S)-2,2,2-trifluoro-1-(4-{4-fluoro-13,13-dimethyl-2,3,7,10-tetraazatricyclo[7.4.0.0^2,6]trideca-1(9),3,5,7-tetraen-10-yl}phenyl)ethyl]-1λ^4-thiane-4-carboxamide], the IC50 was found to be 75 nM in assay [1] and 107 nM in assay [2] (T-cell).
For `CN1C[C@@H](C(=O)N(C)[C@@H](c2ccc(N3CCCc4c3cnc3cc(Cl)nn43)cc2)C(F)(F)F)CCC1=O` (relative stereo) [CPD0073196, (3rel-S)-N-[(1S)-1-(4-{4-chloro-2,3,7,10-tetraazatricyclo[7.4.0.0^2,6]trideca-1(9),3,5,7-tetraen-10-yl}phenyl)-2,2,2-trifluoroethyl]-N,1-dimethyl-6-oxopiperidine-3-carboxamide], the IC50 is 80 nM in assay [1] and 122 nM in assay [2] (T-cell).
For `CN(C(=O)C1CCS(=N)(=O)CC1)[C@@H](c1ccc(N2CCCc3c2cnc2cc(Cl)nn32)cc1)C(F)(F)F` (stereo partly drawn) [CPD0021810], in that order: 63 nM and 194 nM.
For `CN(C(=O)[C@H]1CC[S@+]([O-])CC1)[C@@H](c1ccc(N2CCC3(CC3)c3c2cnc2cc(Cl)nn32)cc1)C(F)(F)F` (relative stereo) [CPD0072779, (1rel-r,4rel-r)-N-[(1S)-1-(4-{4′-chloro-2′,3′,7′,10′-tetraazaspiro[cyclopropane-1,13′-tricyclo[7.4.0.0^2,6]tridecane]-1′(9′),3′,5′,7′-tetraen-10′-yl}phenyl)-2,2,2-trifluoroethyl]-N-methyl-1-oxo-1λ^4-thiane-4-carboxamide], in that order: 57 nM and 33 nM.
For `CN(C(=O)[C@H]1CC[S@@+]([O-])CC1)[C@@H](c1ccc(N2CCCc3c2cnc2cc(Cl)nn32)cc1)C(F)(F)F` (relative stereo) [CPD0022136, (1rel-s,4rel-s)-N-[(1S)-1-(4-{4-chloro-2,3,7,10-tetraazatricyclo[7.4.0.0^2,6]trideca-1(9),3,5,7-tetraen-10-yl}phenyl)-2,2,2-trifluoroethyl]-N-methyl-1-oxo-1λ^4-thiane-4-carboxamide] the same measures were 45 nM and 106 nM.
For the compound `CN(C(=O)[C@H]1CC[C@H](C(=O)O)CC1)[C@@H](c1ccc(N2CCCc3c2cnc2cc(Cl)nn32)cc1)C(F)(F)F` [CPD0072442, (1r,4r)-4-{[(1S)-1-(4-{4-chloro-2,3,7,10-tetraazatricyclo[7.4.0.0^2,6]trideca-1(9),3,5,7-tetraen-10-yl}phenyl)-2,2,2-trifluoroethyl](methyl)carbamoyl}cyclohexane-1-carboxylic acid], the IC50 in assay [1] was found to be 43 nM; in assay [2] (T-cell) it was 300 nM.
For `CN(C)CC(=O)N1CC[C@@H](C(=O)N(C)[C@@H](c2ccc(N3CCCc4c3cnc3cc(Cl)nn43)cc2)C(F)(F)F)C1` (relative stereo) [CPD0075877, (3rel-S)-N-[(1S)-1-[4-(4-chloro-2,3,7,10-tetrazatricyclo[7.4.0.0^2,6]trideca-1(9),3,5,7-tetraen-10-yl)phenyl]-2,2,2-trifluoro-ethyl]-1-[2-(dimethylamino)acetyl]-N-methyl-pyrrolidine-3-carboxamide] the same measures were 115 nM and 172 nM.
`COC(C)c1c(Nc2ccc([C@H](N(C)C(=O)C3CCS(=O)(=O)CC3)C(F)(F)F)cn2)cnc2ccc(Cl)nc12` (stereo in doubt) [CPD0019501, N-[(1S)-1-[6-({6-chloro-4-[(1 rel S)-1-methoxyethyl]-1,5-naphthyridin-3-yl}amino)pyridin-3-yl]-2,2,2-trifluoroethyl]-N-methyl-1,1-dioxo-1λ^6-thiane-4-carboxamide]: the IC50 in assay [1] turned out to be 348 nM; in assay [2], 380 nM.
As for `CO[C@H](C)c1c(Nc2ccc([C@H](N(C)C(=O)C3CCS(=O)(=O)CC3)C(F)(F)F)cc2)cnn2cc(Cl)nc12` [CPD0072850], the figures for the IC50 in assay [1] and in assay [2] (T-cell) were 43 nM and 114 nM, respectively.
With `CN([C@@H](c1ccc(N2CCCc3c2cnc2cc(Cl)nn32)cc1)C(F)(F)F)S(C)(=O)=O` [CPD0021581, N-[(1S)-1-(4-{4-chloro-2,3,7,10-tetraazatricyclo[7.4.0.0^2,6]trideca-1(9),3,5,7-tetraen-10-yl}phenyl)-2,2,2-trifluoroethyl]-N-methylmethanesulfonamide], the values for the half-maximal inhibitory concentration (IC50) in assay [1] and in assay [2] (T-cell) were 370 nM and 538 nM, respectively.
For `C[C@@H]1CCN(c2ccc([C@H](N(C)C(=O)[C@H]3CCC(=O)NC3)C(F)(F)F)cc2)c2cnc3cc(Cl)nn3c21` (relative stereo) [CPD0074549, (3rel-S)-N-[(1S)-1-[4-[(13rel-R)-4-chloro-13-methyl-2,3,7,10-tetrazatricyclo[7.4.0.0^2,6]trideca-1(9),3,5,7-tetraen-10-yl]phenyl]-2,2,2-trifluoro-ethyl]-N-methyl-6-oxo-piperidine-3-carboxamide], in that order: 37 nM and 142 nM.
For `Cc1ncsc1C(=O)N(C)[C@@H](c1ccc(N2CCCc3c2cnc2cc(Cl)nn32)cc1)C(F)(F)F` [CPD0019351, N-[(1S)-1-(4-{4-chloro-2,3,7,10-tetraazatricyclo[7.4.0.0^2,6]trideca-1(9),3,5,7-tetraen-10-yl}phenyl)-2,2,2-trifluoroethyl]-N,4-dimethyl-1,3-thiazole-5-carboxamide], in that order: 278 nM and 152 nM.
For `COC[C@]1(C)CCN(c2ccc([C@H](N(C)C(=O)[C@H]3CC[S@@+]([O-])CC3)C(F)(F)F)cc2)c2cnc3cc(Cl)nn3c21` (relative stereo) [CPD0073135, (1rel-s,4rel-s)-N-[(1S)-1-[4-[(13rel-R)-4-chloro-13-(methoxymethyl)-13-methyl-2,3,7,10-tetrazatricyclo[7.4.0.0^2,6]trideca-1(9),3,5,7-tetraen-10-yl]phenyl]-2,2,2-trifluoro-ethyl]-N-methyl-1-oxo-1λ^4-thiane-4-carboxamide], in that order: 106 nM and 130 nM.

For the origin of these results see patent US20250051327A1, “MALT-1 MODULATORS” (EXSCIENTIA AI LIMITED, priority 2020, published 2025).
